According to patent US6235771A, “Anilide derivative, production and use thereof” (Takeda Chemical Industries, Ltd., priority 1998, dated 2001):

Test system: HIV-1 BA-L
Test: Inhibitory effect on HIV-1 infection to MAGI-CCR5 cell (β-galactosidase activity)
Format: cell-based
Details: 100 μl of medium containing 1.6 μM Test Compound plus 100 μl of medium containing 300PFU HIV-1 BA-L; MAGI-CCR5 cells; 37° C., 2 days
Method: The plasmid where β-galactosidase gene was ligated downstream of HIV-1 LTR was introduced into CD4 positive HeLa cell, to which human CCR5 was further introduced to obtain transformant MAGI-CCR5. By using said transformant MAGI-CCR5, degree of HIV-1 infection was calculated from β-galactosidase activity (blue color due to decomposition of 5-bromo-4-chloro-3-indolyl-β-D-galactopyranoside). Specifically, MAGI-CCR5 cells were suspended in DMEM medium containing 10% serum to prepare 5×10^4 cells/ml suspension. To each well of 96 well plate was inoculated 200 μl of the suspension, and the cells were cultivated at 37° C. overnight. The medium was removed by means of suction, and to the residue was added 100 μl of the above medium containing 1.6 μM of Test Compound and 100 μl of the above medium containing 300PFU of HIV-1 BA-L cells. The cells were cultivated at 37° C. for 2 days. The medium was removed by means of suction. To the residue was added 200 μl of cell fixative (PBS containing 1% formaldehyde and 0.2% glutaraldehyde), and the mixture was allowed to stand at room temperature for 5 minutes and washed twice with PBS. To the mixture was added 100 μl of staining solution (PBS containing […] and 0.4 mg/ml X-gal), and the mixture was allowed to stand at 37° C. for 50 minutes and washed twice with PBS. The number of blue cells was counted by microscope and defined as the number of cells infected with HIV-1. According to this method, inhibition rate on HIV-1 infection was determined.

Structure (SMILES)	Inhibition Rate (HIV-1 infection) [%]
CCCOc1ccc(-c2ccc3c(c2)C=C(C(=O)Nc2ccc(CN(C)C4CCOCC4)cc2)CCS3(=O)=O)cc1 [Compound 29, N-[4-[N-methyl-N-(tetrahydropyran-4-yl)aminomethyl]phenyl]-7-(4-propoxyphenyl)-1,1-dioxo-2,3-dihydro-1-benzothiepine-4-carboxamide]	91
CCCCOc1ccc(-c2ccc3c(c2)C=C(C(=O)Nc2ccc(CN(C)C4CCOCC4)cc2)CCS3(=O)=O)cc1 [Compound 30, 7-(4-butoxyphenyl)-N-[4-[N-methyl-N-(tetrahydropyran-4-yl)aminomethyl]phenyl]-1,1-dioxo-2,3-dihydro-1-benzothiepine-4-carboxamide]	91
CCCOCCOc1ccc(-c2ccc3c(c2)C=C(C(=O)Nc2ccc(CN(C)C4CCOCC4)cc2)CCS3(=O)=O)cc1 [Compound 97, N-[4-[[N-methyl-N-(tetrahydropyran-4-yl)amino]methyl]phenyl]-7-[4-(2-propoxyethoxy)phenyl]-1,1-dioxo-2,3-dihydro-1-benzothiepine-4-carboxamide]	87

Target: T1, human CCR5 (Homo sapiens, UniProt P51681)
T1 construct: expressed in transfected cells; host or cells: CHO-K1 cells, electroporated with plasmid pCKR5 (pcDNA3.1 backbone), geneticin-selected (CHO/CCR5)
Test: Inhibition of [125I]-RANTES binding to human CCR5 in CHO/CCR5 cells (CCR5 antagonistic activity)
Details: Test Compound 1 μM, 100 pM [125I]-RANTES, room temperature, 40 minutes, read-out: Inhibition Rate (CCR5 binding)
Method: Cloning of CCR5 gene was carried out by PCR (polymerase chain reaction) from human spleen cDNA. With using 0.5 ng of spleen cDNA (Toyobo, QUICK-Clone cDNA) as template, PCR was performed in DNA Thermal Cycler 480 (Perkin-Elmer) (reaction conditions: 30 cycles of 95° C. for 1 minute, 60° C. for 1 minute, and 75° C. for 5 minutes) by adding primer set, 5'-[…]-3' (25 pmol) and 5'-[…]-3' (25 pmol), which were designed referring to nucleotide sequence of CCR5 gene reported by Samson et al. (Biochemistry, 35(11), 3362-3367 (1996)) and by using TaKaRa EX Taq (TakaraShuzo). The resultant PCR product was subjected to agarose gel. electrophoresis to collect about 1.0 kb DNA fragment, which was subjected to Original TA Cloning Kit (Funakoshi) to carry out cloning of CCR5 gene.
The plasmid obtained in the above (1) was digested with restriction enzymes XbaI (Takara Shuzo) and BamHI (Takara Shuzo) and subjected to agarose gel electrophoresis to collect about 1.0 kb DNA fragment. The DNA fragment was mixed with plasmid pcDNA3.1 (Funakoshi) for expression in animal cells, said plasmid being digested with XbaI and BamHI, and they were ligated with DNA Ligation Kit Ver.2 (Takara Shuzo). The resulting plasmid was subjected to transformation of competent cell of E. coli JM109 (Takara Shuzo) to obtain plasmid pCKR5.
CHO-K1 cells were grown in 750 ml of tissue culture flask (Becton Dickinson) using Ham's F12 medium (Nihon Pharmaceutical) containing 10% fetal calf serum (Life Tech Oriental) and took off with 0.5 g/L trypsin-0.2 g/L EDTA (Life Tech Oriental). The cells were washed with PBS (Life Tech Oriental), centrifuged (1000 rpm, 5 minutes), and suspended in PBS. With using Gene Pulser (Bio-Rad Laboratories), DNA was introduced into the cells under the conditions shown below. That is, to the cuvette of 0.4 cm gap were added 8×10^6 cells and 10 μg of plasmid pCKR5 for expression of human CCR5, and electroporation was carried out under 0.25 kV of voltage and 960 μF of capacitance. The cells were transferred into Ham's F12 medium (Nihon Pharmaceutical) containing 10% fetal calf serum, and cultivated for 24 hours. The cells were again took off and centrifuged, and suspended in Ham's F12 medium (Nihon Pharmaceutical) containing 10% fetal calf serum and 500 μg/ml of geneticin (Life Tech Oriental). The suspension was diluted to give 10^4 cells/ml of the suspension, which was inoculated on 96 well plate (Becton Dickinson) to give geneticin resistant cells. The resulting geneticin resistant cells were cultivated in 96 well plate (Becton Dickinson), and cells expressing CCR5 were selected from the geneticin resistant cells. That is, in assay buffer (Ham's F12 medium containing 0.5% BSA and 20 mM HEPES (Wako Pure Chemical, pH7.2) to which was added 200 pM of [^125 I]-RANTES (Amersham) as ligand, binding reaction was carried out at room temperature for 40 minutes, and the buffer was washed with cooled PBS. To the buffer was added 50 μl/well of 1M NaOH, and the mixture was stirred. Radioactivity was determined with γ-counter to select CHO/CCR5 cells which specifically bind to the ligand.
The CHO/CCR5 were inoculated on 96 well microplate (5×10^4 cells/well) and cultivated for 24 hours. The medium was removed by means of suction, and to each well was added assay buffer containing Test Compound (1 μM) and then 100 pM of [^125 I]-RANTES (Amersham) as ligand. Binding assay was carried out at room temperature for 40 minutes, and assay buffer was removed by means of suction. Each well was washed twice with cooled PBS, and 200 μl of Microscint-20 (Packard Instrument, Inc.) was added to each well. Radio-activity was determined with Top-Count Micro Scintillation Counter (Packard Instrument, Inc.).
According to the method described above, inhibition rate of Test Compound (whose number is referred to in the following Examples) to CCR5 binding.

T1 sequence (P51681 whole entry): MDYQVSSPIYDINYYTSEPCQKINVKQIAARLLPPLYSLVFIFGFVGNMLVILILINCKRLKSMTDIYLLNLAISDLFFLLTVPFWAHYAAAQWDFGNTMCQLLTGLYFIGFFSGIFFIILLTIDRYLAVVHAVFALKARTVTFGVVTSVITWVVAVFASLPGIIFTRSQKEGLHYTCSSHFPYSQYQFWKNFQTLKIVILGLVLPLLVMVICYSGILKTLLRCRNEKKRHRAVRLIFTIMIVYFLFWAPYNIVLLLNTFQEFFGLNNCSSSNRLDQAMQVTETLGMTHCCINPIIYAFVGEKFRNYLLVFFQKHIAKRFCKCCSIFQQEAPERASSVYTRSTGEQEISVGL

Structure (SMILES)	inhibition at 1 µM [%]
CCOc1ccc(-c2ccc3c(c2)C=C(C(=O)Nc2ccc(CN(C)C4CCOCC4)cc2)CCS3(=O)=O)cc1 [Compound 4, 7-(4-ethoxyphenyl)-N-[4-[N-methyl-N-(tetrahydropyran-4-yl)aminomethyl]phenyl]-1,1-dioxo-2,3-dihydro-1-benzothiepine-4-carboxamide]	91
CCCCOc1ccc(-c2ccc3c(c2)C=C(C(=O)Nc2ccc(CN(C)C4CCOCC4)cc2)CCS3(=O)=O)cc1 [Compound 30, 7-(4-butoxyphenyl)-N-[4-[N-methyl-N-(tetrahydropyran-4-yl)aminomethyl]phenyl]-1,1-dioxo-2,3-dihydro-1-benzothiepine-4-carboxamide]	99
CCSc1ccc(-c2ccc3c(c2)C=C(C(=O)Nc2ccc(CN(C)C4CCOCC4)cc2)CCS3(=O)=O)cc1 [Compound 44, 7-[(4-ethylthio)phenyl]-N-[4-[N-methyl-N-(tetrahydropyran-4-yl)aminomethyl]phenyl]-1,1-dioxo-2,3-dihydro-1-benzothiepine-4-carboxamide]	96
CCCOCCOc1ccc(-c2ccc3c(c2)C=C(C(=O)Nc2ccc(CN(C)C4CCOCC4)cc2)CCS3(=O)=O)cc1OCC [Compound 73, 7-[3-ethoxy-4-(2-propoxyethoxy)phenyl]-N-[4-[[N-methyl-N-(tetrahydropyran-4-yl)amino]methyl]phenyl]-1,1-dioxo-2,3-dihydro-1-benzothiepine-4-carboxamide]	94
CCCOCCOc1ccc(-c2ccc3c(c2)C=C(C(=O)Nc2ccc(CN(C)C4CCOCC4)cc2)CCS3(=O)=O)cc1C [Compound 75, 7-[3-methyl-4-(2-propoxyethoxy)phenyl]-N-[4-[[N-methyl-N-(tetrahydropyran-4-yl)amino]methyl]phenyl]-1,1-dioxo-2,3-dihydro-1-benzothiepine-4-carboxamide]	95
CCOCCOc1ccc(-c2ccc3c(c2)C=C(C(=O)Nc2ccc(CN(C)C4CCOCC4)cc2)CCS3(=O)=O)cc1 [Compound 84, 7-[4-(2-ethoxyethoxy)phenyl]-N-[4-[[N-methyl-N-(tetrahydropyran-4-yl)amino]methyl]phenyl]-1,1-dioxo-2,3-dihydro-1-benzothiepine-4-carboxamide]	97
CCCOCCOc1ccc(-c2ccc3c(c2)C=C(C(=O)Nc2ccc(CN(C)C4CCOCC4)cc2)CCS3(=O)=O)cc1 [Compound 97, N-[4-[[N-methyl-N-(tetrahydropyran-4-yl)amino]methyl]phenyl]-7-[4-(2-propoxyethoxy)phenyl]-1,1-dioxo-2,3-dihydro-1-benzothiepine-4-carboxamide]	92

Results, then the compound that gave them:

inhibition at 1 µM [%]	Structure (SMILES)
100	CCCc1ccc(-c2ccc3c(c2)C=C(C(=O)Nc2ccc(CN(C)C4CCOCC4)cc2)CCS3(=O)=O)cc1 [Compound 27, N-[4-[N-methyl-N-(tetrahydropyran-4-yl)aminomethyl]phenyl]-7-(4-propylphenyl)-1,1-dioxo-2,3-dihydro-1-benzothiepine-4-carboxamide]
100	CCCOc1ccc(-c2ccc3c(c2)C=C(C(=O)Nc2ccc(CN(C)C4CCOCC4)cc2)CCS3(=O)=O)cc1 [Compound 29, N-[4-[N-methyl-N-(tetrahydropyran-4-yl)aminomethyl]phenyl]-7-(4-propoxyphenyl)-1,1-dioxo-2,3-dihydro-1-benzothiepine-4-carboxamide]
99	CCN(CC)c1ccc(-c2ccc3c(c2)C=C(C(=O)Nc2ccc(CN(C)C4CCOCC4)cc2)CCS3(=O)=O)cc1 [Compound 54, 7-(4-diethylaminophenyl)-N-[4-[[N-methyl-N-(tetrahydropyran-4-yl)amino]methyl]phenyl]-1,1-dioxo-2,3-dihydro-1-benzothiepine-4-carboxamide]
94	CCCOCCOc1ccc(-c2ccc3c(c2)C=C(C(=O)Nc2ccc(CN(C)C4CCOCC4)cc2)CCS3(=O)=O)cc1Cl [Compound 74, 7-[3-chloro-4-(2-propoxyethoxy)phenyl]-N-[4-[[N-methyl-N-(tetrahydropyran-4-yl)amino]methyl]phenyl]-1,1-dioxo-2,3-dihydro-1-benzothiepine-4-carboxamide]
95	CC(C)OCCOc1ccc(-c2ccc3c(c2)C=C(C(=O)Nc2ccc(CN(C)C4CCOCC4)cc2)CCS3(=O)=O)cc1 [Compound 111, 7-[4-(2-isopropoxyethoxy)phenyl]-N-[4-[[N-methyl-N-(tetrahydropyran-4-yl)amino]methyl]phenyl]-1,1-dioxo-2,3-dihydro-1-benzothiepine-4-carboxamide]
94	CCOCCCc1ccc(-c2ccc3c(c2)C=C(C(=O)Nc2ccc(CN(C)C4CCOCC4)cc2)CCS3(=O)=O)cc1 [Compound 123, 7-[4-(3-ethoxypropyl)phenyl]-N-[4-[[N-methyl-N-(tetrahydro-2H-pyran-4-yl)amino]methyl]phenyl]-1,1-dioxo-2,3-dihydro-1-benzothiepine-4-carboxamide]
97	CCOCCOc1c(C)cc(-c2ccc3c(c2)C=C(C(=O)Nc2ccc(CN(C)C4CCOCC4)cc2)CCS3(=O)=O)cc1C [Compound 124, 7-[4-(2-ethoxyethoxy)-3,5-dimethylphenyl]-N-[4-[[N-methyl-N-(tetrahydro-2H-pyran-4-yl)amino]methyl]phenyl]-1,1-dioxo-2,3-dihydro-1-benzothiepine-4-carboxamide]
92	CCCOc1ccc(-c2ccc3c(c2)C=C(C(=O)Nc2ccc(CN(C)C4CCOCC4)cc2)CCS3(=O)=O)cc1OCC [Compound 125, 7-(3-ethoxy-4-propoxyphenyl)-N-[4-[[N-methyl-N-(tetrahydro-2H-pyran-4-yl)amino]methyl]phenyl]-1,1-dioxo-2,3-dihydro-1-benzothiepine-4-carboxamide]
95	CCOCCOc1ccc(-c2ccc3c(c2)C=C(C(=O)Nc2ccc(CN(C)C4CCOCC4)cc2)CCS3(=O)=O)cc1C [Compound 129, 7-[4-(2-ethoxyethoxy)-3-methyl-phenyl]-N-[4-[[N-methyl-N-(tetrahydropyran-4-yl)amino]methyl]phenyl]-1,1-dioxo-2,3-dihydro-1-benzothiepine-4-carboxamide]
